Key:
human SCD1 = human SCD1 (Homo sapiens (Human), UniProt O00767); assay: Yeast growth assay, strain expressing human SCD1 as the sole desaturase (reduced growth as surrogate for SCD inhibition); assay type: cell-based; conditions: yeast with OLE1 deleted expressing human SCD1 from a plasmid; growth read as OD600 after 40 h at 30° C.; top drug concentration 33.3 μM
How it was run: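 Human SCD1 or SCD5 expressed from a plasmid in OLE1-deleted yeast as the sole desaturase. Cells washed free of Tween and fatty acids, grown with compound in SD-Ura glucose medium 40 h at 30 °C; growth measured as OD600, reduced growth taken as SCD inhibition.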

human SCD5 = human SCD5 (Homo sapiens (Human), UniProt Q86SK9); assay: Yeast growth assay, strain expressing human SCD5 as the sole desaturase (reduced growth as surrogate for SCD inhibition); assay type: cell-based; conditions: yeast with OLE1 deleted expressing human SCD5 from a plasmid; growth read as OD600 after 40 h at 30° C.; top drug concentration 33.3 μM
Protocol: Strains expressing SCD1 or SCD5 as the sole desaturase, the human SCD1 and SCD5 genes were used to evaluate inhibition of SCD1/SCD5 using reduced growth as a surrogate for SCD inhibition. These yeast strains express human SCD1 or SCD5 from a plasmid harbored in a strain in which the yeast OLE1 gene is deleted.
All compound profiling experiments were performed using the same basic protocol. Yeast were cultured using standard techniques in complete synthetic media lacking uracil and containing yeast nitrogen base supplemented with 2% (w/v) glucose (SD-Ura) Starter cultures were inoculated in 3 mL SD-Ura media containing 0.01% tween and 0.2 mM palmitoleic and oleic acid. Cultures were incubated overnight in a 30° C. shaker incubator (225 rpm). Saturated morning cultures were centrifuged, washed in SD-Ura media lacking TWEEN-20 and fatty acids, and then diluted 1:20 in fresh SD-Ura media also lacking TWEEN-20 and fatty acids.
Compound administration was performed in two separate steps. First, 15 μL of SD-Ura was dispensed into clear 384-well assay plates using a MULTIDROP™ Combi reagent dispenser. […] The cultures described above were centrifuged and washed with media lacking TWEEN-20 or oleic and palmitoleic acids.
After yeast delivery, assay plates were incubated under humidified conditions at 30° C. for 40 h. Yeast growth was monitored by reading the OD600 of each well using a microplate reader (Perkin Elmer EnVision™).

Chain of human SCD1 (O00767 whole entry): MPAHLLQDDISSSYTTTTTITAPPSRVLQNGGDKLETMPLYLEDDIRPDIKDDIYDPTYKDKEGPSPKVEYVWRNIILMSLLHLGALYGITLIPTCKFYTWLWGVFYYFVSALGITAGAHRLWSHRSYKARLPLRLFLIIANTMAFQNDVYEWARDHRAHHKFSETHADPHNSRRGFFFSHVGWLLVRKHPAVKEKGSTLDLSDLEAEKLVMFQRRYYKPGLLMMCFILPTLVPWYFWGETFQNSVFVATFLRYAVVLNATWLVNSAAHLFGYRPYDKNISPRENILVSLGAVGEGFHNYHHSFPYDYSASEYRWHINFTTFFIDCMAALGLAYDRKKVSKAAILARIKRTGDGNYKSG
Chain of human SCD5 (Q86SK9 whole entry): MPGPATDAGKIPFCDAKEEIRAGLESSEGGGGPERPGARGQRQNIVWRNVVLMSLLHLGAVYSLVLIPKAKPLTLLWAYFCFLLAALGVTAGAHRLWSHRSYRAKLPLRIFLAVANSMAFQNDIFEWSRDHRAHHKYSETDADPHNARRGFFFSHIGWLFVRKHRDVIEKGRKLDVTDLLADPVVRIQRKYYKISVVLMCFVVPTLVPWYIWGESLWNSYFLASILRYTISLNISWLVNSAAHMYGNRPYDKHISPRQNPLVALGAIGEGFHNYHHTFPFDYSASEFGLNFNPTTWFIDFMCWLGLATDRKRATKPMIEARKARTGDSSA

Row | Compound | IC50 (human SCD1) | IC50 (human SCD5)
1 | CN(C(=O)c1cc(-c2ccccc2)on1)c1cnn(Cc2cc(F)ccc2C(F)(F)F)c1 [Compound 76] | > 45 µM | > 45 µM
2 | Cc1cnoc1C1CCCN1C(=O)c1cc(-c2ccc3c(c2)OCO3)on1 (stereo not drawn) [Compound 439] | > 45 µM | > 45 µM
3 | O=C(Nc1cnn(Cc2cccc(F)c2)c1)c1cc(-c2ccon2)on1 [Compound 72] | 0.084 µM | > 45 µM
4 | Cc1nn(C)c2cc(-c3cc(CN4C(=O)OCC4c4ccccc4)no3)ccc12 (stereo not drawn) [Compound 273] | > 45 µM | 39.2 µM
5 | O=C(Nc1cnn(Cc2ccccn2)c1)c1cc(-c2ccccc2)on1 [Compound 40] | > 45 µM | > 45 µM
6 | CNC(=O)c1ccc(-c2cc(C(=O)N3CC=C(c4ccccc4)CC3)no2)cc1 [Compound 319] | > 45 µM | > 45 µM
7 | Cc1nn(Cc2ccc(Cl)c(Cl)c2)cc1NC(=O)c1cc(-c2ccco2)on1 [Compound 17, N-(1-(3,4-dichlorobenzyl)-3-methyl-1H-pyrazol-4-yl)-5-(furan-2-yl)isoxazole-3-carboxamide] | > 45 µM | 4.87 µM
8 | O=C(c1cc(-c2cnccn2)on1)N1CC(c2ccccc2)C1 [Compound 259, (3-phenylazetidin-1-yl)(5-(pyrazin-2-yl)isoxazol-3-yl)methanone] | > 45 µM | 5 µM
9 | O=C(Nc1cnn(Cc2cccc(F)c2)c1)c1cc(C2(O)CCC2)on1 [Compound 100] | 3.1 µM | 20 µM
10 | COc1cc(C2CCCN2C(=O)c2cc(-c3ccc4c(c3)OCO4)on2)on1 (stereo not drawn) [Compound 411] | 30 µM | > 45 µM
11 | COc1ccc(C2CCCN2C(=O)c2cc(-c3ccc4nc(N(C)C)oc4c3)on2)cc1 (stereo not drawn) [Compound 399] | 15 µM | 2.89 µM
12 | C=C(C)c1cc(C(=O)Nc2cnn(Cc3ccccc3)c2)on1 [Compound 153] | 9 µM | 7 µM
13 | CNC(=O)c1cc(C(=O)N2CCC(c3ccccc3)C2)no1 (stereo not drawn) [Compound 347] | 4.19 µM | 5.28 µM
14 | O=C(Nc1cnn(Cc2ccccc2)c1)c1cc(-c2ccncc2Cl)on1 [Compound 134, N-(1-benzyl-1H-pyrazol-4-yl)-5-(3-chloropyridin-4-yl)isoxazole-3-carboxamide] | 5.32 µM | 4.96 µM
15 | N#Cc1ccc(-c2cc(C(=O)N3CCC(c4ccccc4)CC3)no2)cc1 [Compound 316, 4-(3-(4-phenylpiperidine-1-carbonyl)isoxazol-5-yl)benzonitrile] | > 45 µM | 0.7 µM
16 | O=C(c1cc(-c2ccc3c(c2)OCO3)on1)N1CCC(Oc2ccccc2)CC1 [Compound 298, [5-(1,3-benzodioxol-5-yl)isoxazol-3-yl]-(4-phenoxy-1-piperidyl)methanone] | 6.22 µM | 2.92 µM
17 | COc1ccc(C2CCCN2C(=O)c2cc(-c3ccc(C(F)(F)F)cc3)on2)cc1 (stereo not drawn) [Compound 381] | > 45 µM | > 45 µM
18 | N#Cc1ccc(Cn2cc(NC(=O)c3cc(-c4ccccc4)on3)cn2)nc1 [Compound 63] | > 45 µM | > 45 µM
19 | O=C(c1cc(-c2ccc3c(c2)OCO3)on1)N1CCC1c1ccccc1F (stereo not drawn) [Compound 218] | > 45 µM | > 45 µM
20 | C[S+]([O-])CC(c1ccccc1)n1cc(NC(=O)c2cc(-c3ccccc3)on2)cn1 (stereo not drawn) [Compound 78] | > 45 µM | > 45 µM
21 | Cn1ncc2ccc(-c3cc(C(=O)N4CC(c5ccccc5)C4)no3)cc21 [Compound 232, (5-(1-methyl-1H-indazol-6-yl)isoxazol-3-yl)(3-phenylazetidin-1-yl)methanone] | > 45 µM | 1.63 µM
22 | O=C(Nc1cnn(Cc2ccccc2)c1)c1cc(-c2ccncc2F)on1 [Compound 147, N-(1-benzyl-1H-pyrazol-4-yl)-5-(3-fluoropyridin-4-yl)isoxazole-3-carboxamide] | > 45 µM | 7.4 µM
23 | O=C(Nc1cnn(Cc2cc(F)ccc2C(F)(F)F)c1)c1cc(-c2ncccc2F)on1 [Compound 107] | > 45 µM | > 45 µM

Row | Compound | IC50 (human SCD1) | IC50 (human SCD5)
24 | O=C(c1cc(-c2ccccc2)on1)N1CC(CCl)(CNc2ccccc2)C1 [Compound 215] | 1.86 µM | 1.36 µM
25 | N#Cc1ccc(Cn2cc(NC(=O)c3cc(-c4ccccc4)on3)cn2)cc1 [Compound 42] | > 45 µM | > 45 µM
26 | COc1ccc(-c2cc(NC(=O)[C@@H]3CCCN3c3ccccc3)on2)cc1 [Compound 445] | > 45 µM | > 45 µM
27 | O=C(c1cc(-c2ccccc2)on1)N1CC2(C1)CN(c1ccccc1)C2 [Compound 209] | > 45 µM | > 45 µM
28 | O=C(Nc1cnn(Cc2cccc(F)c2)c1)c1cc(-c2ccccc2)on1 [Compound 53] | 0.07 µM | > 45 µM
29 | O=C(c1cc(-c2ccc3ncnn3c2)on1)N1CCC[C@H]1c1ccccc1 [Compound 441] | 32.4 µM | > 45 µM
30 | O=C(Nc1cnn(Cc2ccccc2)c1)c1cc(-c2c(F)cccc2F)on1 [Compound 195] | > 45 µM | > 45 µM
31 | CC(C)(C)OC(=O)N1CC2(C1)CN(C(=O)c1cc(-c3ccccc3)on1)C2 [Compound 344] | > 45 µM | > 45 µM
32 | Cn1ccc(-c2cc(C(=O)N3CCC[C@H]3c3ccccc3)no2)cc1=O [Compound 428] | 29.4 µM | > 45 µM
33 | COc1ccc(C2CCCN2C(=O)c2cc(-c3ccc4c(c3)OCO4)on2)nc1 (stereo not drawn) [Compound 145] | > 45 µM | > 45 µM
34 | Cc1cc(C2CCCN2C(=O)c2cc(-c3ccc4c(c3)OCO4)on2)no1 (stereo not drawn) [Compound 442] | > 45 µM | > 45 µM
35 | COc1ccc(-c2cc(C(=O)N3CC(c4ccccc4)C3)no2)nn1 [Compound 255, (5-(6-methoxypyridazin-3-yl)isoxazol-3-yl)(3-phenylazetidin-1-yl)methanone] | 23 µM | 1.8 µM
36 | O=C(Nc1noc(Cc2ccccc2)n1)c1cc(-c2ccccc2)on1 [Compound 79] | > 45 µM | > 45 µM
37 | C=C(C)c1cc(C(=O)N2CCC3(CCc4c(F)cccc4O3)CC2)no1 [Compound 324] | > 45 µM | 3.8 µM
38 | CNC(=O)c1cc(C(=O)Nc2cnn(Cc3cccc(F)c3)c2)no1 [Compound 87] | 15 µM | > 45 µM
39 | O=C(c1ccncc1)N1CCN(C(=O)c2cc(-c3ccc4c(c3)OCO4)on2)CC1 [Compound 276] | > 45 µM | > 45 µM
40 | CC(C)(O)c1cc(C(=O)Nc2cnn(Cc3ccccc3)c2)on1 [Compound 152] | > 45 µM | > 45 µM
41 | O=C(c1cc(-c2ccccc2)on1)N1CC(c2ccccc2)C1 [Compound 212, (3-phenylazetidin-1-yl)-(5-phenylisoxazol-3-yl)methanone] | 4.52 µM | 1.62 µM
42 | CNC(=O)c1cccc(-c2cc(C(=O)N3CCC(c4ccccc4)CC3)no2)c1 [Compound 303] | > 45 µM | > 45 µM
43 | CS(=O)(=O)CC(c1ccccc1)n1cc(NC(=O)c2cc(-c3ccccc3)on2)cn1 (stereo not drawn) [Compound 80] | > 45 µM | > 45 µM
44 | C[S+]([O-])CCC(c1ccccc1)n1cc(NC(=O)c2cc(-c3ccccc3)on2)cn1 (stereo not drawn) [Compound 71] | > 45 µM | > 45 µM
45 | O=C(Nc1cnn(Cc2cccc(F)c2)c1)c1cc(-c2ncccn2)on1 [Compound 46] | 22.6 µM | > 45 µM

— patent publication US10919885B2, “Compounds and uses thereof” (Yumanity Therapeutics, Inc., priority 2018, dated 2021)
